Data on four molecules can be found in patent US7226949B2, “Compounds of use in the treatment of epilepsy, seizure, and electroconvulsive disorders” (University of Kentucky, priority 2002, dated 2007).

Where two headings read alike, the source gives them in different places.

Data set [1] relates to MES-induced seizure. The data set can be described thus: Maximal Electroshock Seizure (MES) test in mice, intraperitoneal administration. It is filed as in vivo. An excerpt:
(§1) The Maximal Electroshock Seizure (MES) or Maximal Seizure Pattern Test
(§2) The MES is an experimental model for generalized tonic-clonic seizures that identifies compounds that prevent seizure spread. The MES model is highly reproducible and has a consistent endpoint. An advantage of this model is that the behavioral and electrographic seizures are consistent with those observed in humans.
(§3) In the MES test, the animal receives an electrical stimulus, 0.2 seconds in duration, via corneal electrodes primed with an electrolyte solution containing an anesthetic agent. The 0.2 second stimulation is generated with 150 mA in rats and 50 mA in mice at 60 Hz. […] In rats, the compound is administered orally, while mice receive the agent via intraperitoneal injection. The test endpoint, electrogenic seizure, is manifested as hindlimb tonic extension.

Data set [2] deals with MES-induced seizure. Briefly: Maximal Electroshock Seizure (MES) test in rats, oral administration. Type of data set: in vivo. Particulars: for Percentage of rats in which the test compound prevented MES-induced seizure: 30 mg/kg oral; for Time to Peak Effect: MES test; for ED50: read-out: ED50 required to inhibit MES-induced seizure.
Source text: as §1, §2, §3
A full dose-response curve was also generated in rats to determine the ED50 value (n=8 at each time point). […] The ED50 of 4,4′-thiodianiline was evaluated in both rats and mice.
On the technique in general: In the maximal electroshock model the usual endpoint is tonic extension of the hind limbs.

The next data set deals with 6 Hz seizures. The data set can be described thus: 6 Hz kindling model. Type of data set: in vivo, mice. How it is done: The 6 Hz kindling model is another experimental seizure model that effectively detects compounds with anti-seizure activity. This screen is used to evaluate the ability of a compound to prevent the acquisition of focal seizures; in particular, the capacity of a compound to prevent the development of seizures induced by a low-frequency (6 Hz), long duration (three seconds) stimulus in electrode […] is evaluated. Several of the most promising compounds were evaluated in this screen to further characterize their anti-seizure activity.
In the 6 Hz kindling test, mice are implanted with corneal electrodes. The test compound is administered (i.p.) to the animal at 0.25, 0.5, 1, 2, or 4 hours prior seizure induction. The seizure is initiated by delivering a current (32 mA at 6 Hz for three seconds) to the animal through the corneal electrodes. The resulting psychomotor seizure is usually characterized by a minimal clonic phase followed by stereotyped, automatistic behaviors. This response is analogous to the aura of human patients with partial seizures.

Another data set has as its system rats. The data set can be described thus: Minimal neurotoxicity in rats, positional sense and gait and stance tests. Type of data set: in vivo. Particulars: for toxicity: 250 mg/kg. An excerpt: If the rat experiences neurological toxicity, it will not be able to quickly lift its leg quickly back to a normal position.
In the gait and stance test, neurotoxicity is indicated by a circular or zigzag gait after administration of the test compound. In addition, ataxia, abnormal spread of the legs, abnormal posture, tremor hyperactivity, lack of exploratory behavior, somnolence, stupor, or catalepsy can indicate neurotoxicity.

In the next data set the test system is mice. The data set can be described thus: Minimal neurotoxicity in mice, rotorod test. To be noted: for toxicity: 100 mg/kg.
Data set [3] concerns focal seizures in hippocampal kindled rats. The data set can be described thus: Hippocampal kindling model. It is filed as in vivo, Sprague-Dawley rats. To be noted: hippocampal kindling model; not as effective as 4,4′-thiodianiline. The text has this:
Hippocampal Kindling Model
The hippocampal kindling model is an experimental seizure model used to simulate focal seizures. This model evaluates the capacity of a compound to affect both the expression and acquisition of focal seizures. In addition, kindled seizures provide a methodology for studying complex brain networks that may contribute to the spread and generalizations of seizures from a focus. The hippocampal kindling model has the advantage of being one of the only kindling models that can evaluate the temporal effects of an agent in a single animal. For this assessment, bipolar electrodes are surgically implanted in the ventral hippocampus of adult male Sprague-Dawley rats (275-300 g) under ketamine-xylazine anesthesia. Following a one-week recovery period, stage five behavioral seizures are induced by stimulating the rat 12 times per day with 50 Hz, 10 s train of 1 ms biphasic 200 μA pulses delivered every 30 min for six hours on alternating days. After five stimulus days, the animal has had 60 stimulations. A drug free control period with supramaximal stimulations is used to verify the stability of a stage five generalized seizure before the anticonvulsant activity of a drug is measured.
This screen is used to measure the capacity of the drug to prevent the expression of focal seizures. […] The animal is exposed to an initial stimulation of 20 μA; the stimulation is increased in 10 μA increments every one-two minutes until an afterdischarge is recorded. After the stability of the stage five seizure is established, the drug candidate is administered to the rats via intraperitoneal injection 15 minutes after the last control stimulation. Starting with the first dose, the anticonvulsant activity of the test agent is measured every thirty minutes for four hours. Following each stimulation, Racine seizure scores and afterdischarge durations are compared to control values to quantify the anti-convulsant activity of the agent. The Racine seizure scores vary from stage 1 to 5. The stages are characterized according to the following criteria: Stage 1—mouth and facial clonus, Stage 2—stage 1 and head nodding, Stage 3—stage 2 and forelimb clonus, Stage 4—stage 3 and rearing, Stage 5—stage 4 and repeated rearing and falling. Since a single animal is used, each rat serves as its own control.
4,4′-Thiodianiline was used in the rat hippocampal kindled rats to screen to measure its anticonvulsant potential. Doses of 12.5, 25, 50 and 100 mg/kg were evaluated at a minimum of seven time points (n=7 for each dose and each time point). […] After oral administration of the test compound stimulation, the Racine seizure scores and afterdischarge durations were measured and are shown below. The Racine seizure scores dropped from between a stage 4 and stage 5 seizure for control measurements to between a stage 1 and stage 2 seizure after treatment with 4,4′-thiodianiline.

The mark [4] stands for this setting: 30 mg/kg i.p., 0.5 h after administration.
[5] abbreviates: 30 mg/kg i.p., 4.0 h after administration.
Where [6] appears, read: 100 mg/kg i.p., 0.5 h after administration.
Where [7] appears, read: 100 mg/kg i.p., 4.0 h after administration.
Setting [8] is: 300 mg/kg i.p., 0.5 h after administration.
The mark [9] stands for this setting: 300 mg/kg i.p., 4.0 h after administration.
The mark [10] stands for this setting: rat, oral administration, at the time of peak effect, n=8.
Setting [11] is: 30 mg/kg i.p., 0.25 h after administration.
Where [12] appears, read: 30 mg/kg i.p., 1.0 h after administration.
[13] abbreviates: 100 mg/kg i.p., 0.25 h after administration.
[14] abbreviates: 100 mg/kg i.p., 1.0 h after administration.
The mark [15] stands for this setting: 100 mg/kg i.p., 2.0 h after administration.

By ED50 is commonly meant the midpoint of the dose-response relation. On to `Nc1ccc(C(=O)c2ccc(N)cc2)cc1` [4,4′-diaminobenzophenone], for which the “Percentage of mice in which the test compound prevented MES-induced seizure” value in the data set with MES-induced seizure [1] (setting [4]) was 0%; in the data set on MES-induced seizure [1] (setting [5]), 0%; with MES-induced seizure [1] (setting [6]), 100%; with MES-induced seizure [1] (setting [7]), 100%; in the data set with MES-induced seizure [1] (setting [8]), 100%; in the data set on MES-induced seizure [1] (setting [9]), 100%. Moreover, the “Percentage of rats in which the test compound prevented MES-induced seizure” value (“Percentage of rats” for short) came to 50% in the data set on MES-induced seizure [2] (0.25 h after administration); 100% in the data set with MES-induced seizure [2] (0.5 h after administration); 75% in the data set with MES-induced seizure [2] (1.0 h after administration); 100% in the data set with MES-induced seizure [2] (2.0 h after administration); 75% in the data set with MES-induced seizure [2] (4.0 h after administration). Moreover, the “Time to Peak Effect” value with MES-induced seizure [2] (rat, oral administration) came to 1 h. The ED50 with MES-induced seizure [2] (setting [10]) came out at 7.15 mg/kg. Further, the “Percentage of mice in which the test compound prevented seizure in the 6 Hz test” value (“Percentage of mice … in the 6 Hz test” for short) is 0% with 6 Hz seizures (setting [11]); 0% in the data set with 6 Hz seizures (setting [4]); 0% with 6 Hz seizures (setting [12]); 100% in the data set with 6 Hz seizures (setting [13]); 100% with 6 Hz seizures (setting [6]); 100% in the data set with 6 Hz seizures (setting [14]). The “Percentage of mice … in the 6 Hz test” value in the data set on 6 Hz seizures (setting [15]) and in the data set on 6 Hz seizures (setting [7]) was 0% throughout. The acute neurotoxic effects result with rats (0.25 to 24 hours after oral administration, doses as high as 500 mg/kg) is given as “None of the rats tested at any timepoints”. Besides, the neurotoxicity result in the data set with mice (doses below 100 mg/kg) was “showed no neurotoxicity”.
With `Nc1ccc(Nc2cccc(N)c2)cc1` [(3-aminophenyl)-(4-aminophenyl) amine], the “Percentage of mice in which the test compound prevented MES-induced seizure” value with MES-induced seizure [1] (setting [4]) is reported as 0%; with MES-induced seizure [1] (setting [5]) it was 0%; in the data set with MES-induced seizure [1] (setting [6]), 100%; in the data set with MES-induced seizure [1] (setting [7]) it was 100%; in the data set on MES-induced seizure [1] (setting [8]), 100%; with MES-induced seizure [1] (setting [9]), 100%. Also, the “Percentage of rats” value came out at 0% in the data set with MES-induced seizure [2] (0.25 h after administration); 50% with MES-induced seizure [2] (0.5 h after administration); 75% in the data set on MES-induced seizure [2] (1.0 h after administration); 50% in the data set on MES-induced seizure [2] (2.0 h after administration); 50% with MES-induced seizure [2] (4.0 h after administration). Besides, in the data set with MES-induced seizure [2] (rat, oral administration), the “Time to Peak Effect” value came out at 2 h. Further, the ED50 in the data set with MES-induced seizure [2] (setting [10]) was 31.7 ± 24.4 mg/kg. For the same molecule, the toxicity entry in the data set on rats and with mice was “no significant toxicity” throughout.
With `Nc1ccc(NC(=O)c2ccc(N)cc2)cc1` [4,4′-Diaminobenzanalide], in data set [3], the “expression of fully kindled seizures” value is listed as “had the capacity to block the expression of fully kindled seizures”.
On to `Nc1ccc(Cc2ccc(N)cc2)cc1` [4,4′-methylenedianiline], for which the “Percentage of mice in which the test compound prevented MES-induced seizure” value with MES-induced seizure [1] (setting [4]) is given as 0%; with MES-induced seizure [1] (setting [5]), 0%; in the data set with MES-induced seizure [1] (setting [6]) it was 100%; in the data set with MES-induced seizure [1] (setting [7]), 0%; in the data set with MES-induced seizure [1] (setting [8]), 100%; in the data set on MES-induced seizure [1] (setting [9]), 100%. The “Percentage of rats” value is reported as 100% in the data set with MES-induced seizure [2] (0.25 h after administration); 75% in the data set on MES-induced seizure [2] (0.5 h after administration); 92% in the data set with MES-induced seizure [2] (1.0 h after administration); 100% with MES-induced seizure [2] (2.0 h after administration); 50% in the data set on MES-induced seizure [2] (4.0 h after administration). Further, the median effective dose (ED50) with MES-induced seizure [2] (Rattus norvegicus, po) is 10.6 ± 5.88 mg/kg. In addition, in the data set with MES-induced seizure [2] (rat, oral administration), the “Time to Peak Effect” value turned out to be 1 h. Also, the “Percentage of mice … in the 6 Hz test” value in the data set with 6 Hz seizures (setting [11]) was determined as 0%; in the data set on 6 Hz seizures (setting [4]) it was 0%; in the data set on 6 Hz seizures (setting [12]), 0%; with 6 Hz seizures (setting [13]), 100%; in the data set on 6 Hz seizures (setting [6]) it was 100%; with 6 Hz seizures (setting [14]), 100%. Also, the “Percentage of mice … in the 6 Hz test” value with 6 Hz seizures (setting [15]) and in the data set on 6 Hz seizures (setting [7]) was 0% in each case. In addition, the toxicity result in the data set with rats and in the data set with mice was “no significant toxicity” in each case.
